Among the test systems are NCI-H460; OVCAR-8; MOLT-4; ACHN; MDA-MB-231; 786-0; HOP-62; SK-MEL-28; SK-OV-3; K562; NCI-H226; HT-29; HCT-116; SW-620; SN12C; HCC 2998; SK-MEL-5; DLD-1; DMS-273.
Assay in all cases: inhibition of tumour cell growth, NCI panel, 48 h

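The compound was tested at five concentrations on cells cultured in 96-well plates, with a 48-hour exposure period. Here, GI50 denotes the concentration required for 50% inhibition of growth.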 The source made the active and inactive calls. Rule as the data show it: active = GI50 up to about 1.1 µM and inactive = higher. Some results are limits rather than exact numbers.

Regarding `CN1CCC(CNC(=O)CCCCCCCCC(=O)NCC2(c3ccccc3)CCN(C)CC2)(c2ccccc2)CC1`, the GI50 with NCI-H460 was > 100 µM (inactive); with OVCAR-8, > 100 µM (inactive); in the assay with MOLT-4, > 100 µM (inactive); in the assay with ACHN it was > 100 µM (inactive); with MDA-MB-231, > 100 µM (inactive); in the assay on 786-0, 52.4 µM (inactive). Moreover, the GI50 with HOP-62 is > 100 µM (inactive); with SK-MEL-28, > 100 µM (inactive); in the assay with SK-OV-3, > 100 µM (inactive); with K562, 77.1 µM (inactive); in the assay with NCI-H226, > 100 µM (inactive); in the assay with HT-29, 45.5 µM (inactive). Further, the GI50 is 60.1 µM (inactive) with HCT-116; > 100 µM (inactive) in the assay on SW-620; > 100 µM (inactive) in the assay with SN12C; > 100 µM (inactive) in the assay with HCC 2998; > 100 µM (inactive) in the assay with SK-MEL-5.
In the case of `CC1OC(OC2C(OC(=O)[C@]34CCC(C)(C)C[C@H]3C3=CC[C@@H]5[C@@]6(C)CC[C@H](OC7OC(CO)C(O)C(O)C7OC7OC(CO)C(O)C(O)C7O)C(C)(C)[C@@H]6CC[C@@]5(C)[C@]3(C)CC4)OCC(O)C2O)C(O)C(OC2OCC(O)C(O)C2O)C1OC1OCC(O)C(OC2OCC(O)C(O)C2O)C1O` (some centres not stated), the GI50 was 69 µM (inactive) in the assay on NCI-H460; 18 µM (inactive) in the assay on OVCAR-8; 13.2 µM (inactive) with MOLT-4; 9.4 µM (inactive) with ACHN; 7.6 µM (inactive) in the assay with MDA-MB-231; 12.2 µM (inactive) in the assay with 786-0. The GI50 in the assay on HOP-62 was 14 µM (inactive); in the assay with SK-MEL-28 it was 2.37 µM (inactive); with SK-OV-3, 32.2 µM (inactive); in the assay with K562 it was 6.55 µM (inactive); with NCI-H226, 7.05 µM (inactive); with HT-29, 4.23 µM (inactive). In addition, the GI50 in the assay on HCT-116 is 8.97 µM (inactive); in the assay on SW-620 it was 15.7 µM (inactive); in the assay with SN12C, 2.26 µM (inactive); with HCC 2998 it was 2.14 µM (inactive); in the assay on SK-MEL-5, 9.4 µM (inactive).
For the molecule `C=CCN1C(=O)NC(=O)/C(=C/c2c3ccccc3cc3ccccc23)C1=O`, the GI50 is 19.1 µM (inactive) in the assay on NCI-H460; 22.4 µM (inactive) in the assay with OVCAR-8; 17.9 µM (inactive) with MOLT-4; 18.9 µM (inactive) in the assay on DLD-1; 17.3 µM (inactive) in the assay with HOP-62; 22.4 µM (inactive) in the assay on SK-MEL-28. Moreover, the GI50 in the assay with DMS-273 is 20.8 µM (inactive); with SK-OV-3, 29.9 µM (inactive); with K562, 20.8 µM (inactive); with NCI-H226, 26.3 µM (inactive); with HT-29, 20.7 µM (inactive); in the assay on HCT-116, 17.1 µM (inactive). Further, the GI50 with SW-620 is 35.7 µM (inactive); in the assay with HCC 2998 it was 14.8 µM (inactive); in the assay on SK-MEL-5, > 10 µM (inactive).
As for `C/C(=N\NC(=O)C[N+](C)(C)C)c1sc(-c2cccnc2)nc1C`, the GI50 in the assay with NCI-H460, in the assay with OVCAR-8, in the assay on MOLT-4, in the assay with ACHN, in the assay with DLD-1 and in the assay on 786-0 was > 100 µM (inactive) each time. Moreover, the GI50 in the assay on HOP-62, with SK-MEL-28, in the assay on DMS-273, in the assay with SK-OV-3, with K562 and in the assay on NCI-H226 was > 100 µM (inactive) in each case. Further, the GI50 in the assay on HT-29, with HCT-116, in the assay with SW-620, in the assay on HCC 2998 and with SK-MEL-5 was > 100 µM (inactive) in each case.
Take `COC(=O)c1ccc2c(c1)CC1(C2)Cc2ccccc2C1=O` (configuration not stated): the GI50 is > 100 µM (inactive) in the assay on NCI-H460; 38.5 µM (inactive) with OVCAR-8; 15.4 µM (inactive) with MOLT-4; 29.7 µM (inactive) with ACHN; 22.7 µM (inactive) in the assay on MDA-MB-231; 40.2 µM (inactive) in the assay with 786-0. The GI50 is 38.5 µM (inactive) in the assay with HOP-62; 14.8 µM (inactive) with SK-MEL-28; 68.4 µM (inactive) in the assay with SK-OV-3; 30.3 µM (inactive) in the assay with K562; 15.1 µM (inactive) in the assay with NCI-H226; 17.5 µM (inactive) with HT-29. In addition, the GI50 in the assay on HCT-116 was 23.8 µM (inactive); in the assay with SW-620 it was 32.7 µM (inactive); in the assay with SN12C it was 25.9 µM (inactive); in the assay on HCC 2998, 54.5 µM (inactive); with SK-MEL-5 it was 17.9 µM (inactive).
On to `C[C@]12CC[C@H](O)CC1=CC[C@@H]1[C@@H]2CC[C@]2(C)NC(=O)/C(=C\c3ccccc3)C[C@@H]12`, for which the GI50 in the assay with NCI-H460 is 23.9 µM (inactive); with OVCAR-8, 21.1 µM (inactive); with MOLT-4, 26.5 µM (inactive); with ACHN, 17.4 µM (inactive); in the assay on MDA-MB-231 it was 16 µM (inactive); in the assay with 786-0 it was 19.8 µM (inactive). Further, the GI50 in the assay with HOP-62 was 13.5 µM (inactive); in the assay with SK-MEL-28, 16.7 µM (inactive); in the assay on SK-OV-3 it was 18.9 µM (inactive); with K562 it was 39.6 µM (inactive); with NCI-H226 it was 14.9 µM (inactive); with HT-29 it was 14.3 µM (inactive). The GI50 in the assay with HCT-116 is 14.2 µM (inactive); in the assay on SW-620 it was 16.9 µM (inactive); with SN12C, 23 µM (inactive); in the assay with HCC 2998, 13.4 µM (inactive); with SK-MEL-5, 12.9 µM (inactive).
As to `Cn1cc2ccccc2c1-c1nc(F)nc(Nc2ccc(N)cc2)n1`, the GI50 with NCI-H460 is 13.5 µM (inactive); in the assay on OVCAR-8, 21 µM (inactive); with MOLT-4, 17.5 µM (inactive); in the assay on ACHN, 23.3 µM (inactive); in the assay on DLD-1, 13 µM (inactive); in the assay with 786-0, 22.3 µM (inactive). The GI50 was 16.6 µM (inactive) in the assay with HOP-62; 15.5 µM (inactive) in the assay on SK-MEL-28; 10.2 µM (inactive) in the assay on DMS-273; 11.6 µM (inactive) with SK-OV-3; 8.63 µM (inactive) in the assay with K562; 16.5 µM (inactive) in the assay on NCI-H226. Further, the GI50 in the assay with HT-29 is 21.5 µM (inactive); with HCT-116, 15.5 µM (inactive); in the assay with SW-620 it was 14.8 µM (inactive); with SN12C it was 17.2 µM (inactive); in the assay on HCC 2998 it was 18 µM (inactive); in the assay with SK-MEL-5 it was 11.5 µM (inactive).
Turning to `c1ccc(-c2c3c(nc4c2CC[C@H]4NC2=NCCN2)[C@@H](NC2=NCCN2)CC3)cc1`, the GI50 is 29.2 µM (inactive) in the assay on NCI-H460; > 100 µM (inactive) in the assay with OVCAR-8; 56.2 µM (inactive) with MOLT-4; > 100 µM (inactive) with ACHN; > 100 µM (inactive) in the assay with MDA-MB-231; > 100 µM (inactive) in the assay on 786-0. The GI50 in the assay with HOP-62 is > 100 µM (inactive); in the assay on SK-MEL-28, > 100 µM (inactive); in the assay on SK-OV-3 it was > 100 µM (inactive); with K562, > 100 µM (inactive); with NCI-H226 it was > 73.1 µM (inactive); in the assay with HT-29 it was > 100 µM (inactive). Moreover, the GI50 was 48.5 µM (inactive) in the assay on HCT-116; > 100 µM (inactive) with SW-620; > 100 µM (inactive) in the assay with SN12C; 27 µM (inactive) in the assay with HCC 2998; > 100 µM (inactive) with SK-MEL-5.
Turning to `O=C(CC(=O)N1N=C(c2ccccc2)C(/N=N/c2ccccc2Cl)C1=O)Nc1ccccc1Cl` (configuration not stated), the GI50 in the assay on NCI-H460 was 56.2 µM (inactive); in the assay with OVCAR-8, 31.7 µM (inactive); in the assay with MOLT-4 it was 28.6 µM (inactive); with ACHN, 20.2 µM (inactive); in the assay with DLD-1 it was 23 µM (inactive); in the assay on 786-0 it was 20.8 µM (inactive). The GI50 in the assay with HOP-62 is 33 µM (inactive); in the assay on SK-MEL-28, 44.3 µM (inactive); with DMS-273, 37.5 µM (inactive); with SK-OV-3 it was 28.6 µM (inactive); with K562, 31.1 µM (inactive); in the assay with NCI-H226 it was 42.7 µM (inactive). In addition, the GI50 in the assay on HT-29 was 19.9 µM (inactive); in the assay with HCT-116 it was 25.9 µM (inactive); in the assay on SW-620, 29.9 µM (inactive); with SN12C it was 58.5 µM (inactive); with HCC 2998 it was > 100 µM (inactive); with SK-MEL-5, 17.1 µM (inactive).
Take `[O-]/[N+](=C\c1ccccc1OC(=S)S)c1ccc(Cl)cc1`: the GI50 with NCI-H460 is 0.292 µM (active); in the assay on OVCAR-8, 8.24 µM (inactive); in the assay on MOLT-4, 5.46 µM (inactive); in the assay on ACHN, 20.6 µM (inactive); with MDA-MB-231, 13.7 µM (inactive); in the assay with 786-0, 14.6 µM (inactive). The GI50 was 47.9 µM (inactive) in the assay on HOP-62; 3.57 µM (inactive) in the assay with SK-MEL-28; > 100 µM (inactive) with SK-OV-3; 10.6 µM (inactive) in the assay on K562; 48.4 µM (inactive) in the assay with NCI-H226; 22.4 µM (inactive) with HT-29. Further, the GI50 was 10.1 µM (inactive) with HCT-116; 11.2 µM (inactive) with SW-620; 24.8 µM (inactive) in the assay on SN12C; 45.3 µM (inactive) with HCC 2998; 0.224 µM (active) with SK-MEL-5.
On to `FC(F)(F)c1ccc2c(c1)nc(Cc1ccc(Cl)cc1)n2CC1CCCN2CCCCC12` (configuration not stated), for which the GI50 in the assay with NCI-H460 was 7.66 µM (inactive); with OVCAR-8, 11.3 µM (inactive); in the assay on MOLT-4, 3.18 µM (inactive); in the assay on ACHN it was 11.5 µM (inactive); in the assay on MDA-MB-231, 3.27 µM (inactive); in the assay with 786-0, 7.67 µM (inactive). The GI50 was 14.1 µM (inactive) in the assay on HOP-62; 2.52 µM (inactive) in the assay on SK-MEL-28; 11.9 µM (inactive) in the assay with SK-OV-3; 4.18 µM (inactive) with K562; 11.9 µM (inactive) in the assay with NCI-H226; 2.81 µM (inactive) in the assay with HT-29. The GI50 in the assay with HCT-116 was 6.35 µM (inactive); in the assay on SW-620, 13.2 µM (inactive); in the assay with SN12C it was 9.79 µM (inactive); in the assay on HCC 2998, 2.11 µM (inactive); in the assay on SK-MEL-5 it was 3.89 µM (inactive).

These data come from ChEMBL document CHEMBL1201862, “PubChem BioAssay data set” (2004).
